Target: RORγt (Homo sapiens (Human), UniProt P51449)
Experiment: RORγt luciferase reporter assay in CHO-K1 cells (RORgamma inhibitory activity)
Assay type: cell-based
Conditions: CHO-K1 cells stably transfected with RORγt, transiently transfected with pFR Luc; 18-20 hours treatment; luminescence; read-out: In-vitro IC50 value IC50
Method: The representative compounds are referred to as the test compounds.
CHO-K1 cells stably transfected with RORγt are maintained in MEM-EBS with 5% FBS, 1% penicillin streptomycin solution and 1 mg/mL G418. The cells are seeded at a density of 200000 cells/mL in white 96 well flat bottom plate. Post 16-18 hours incubation, the cells are transiently transfected with pFR Luc (50 ng/well DNA) for four hours. The cells are then treated with different doses of the test compounds in MEM EBS media with 10% FBS and 1% penicillin streptomycin. DMSO is used as vehicle control. After 18-20 hours treatment, the cells are lysed with lysis buffer (40 mM HEPES, 20 mM EGTA, 50 mM β-glycerophosphate, 10% glycerol and 1% Triton X-100 in distilled water) for 0.5 hour and luminescence is read using Tecan Safire reader at 1000 milli second integration time.

Sequence of RORγt (P51449 other isoform, or with tags, fused parts or gaps, species assumed): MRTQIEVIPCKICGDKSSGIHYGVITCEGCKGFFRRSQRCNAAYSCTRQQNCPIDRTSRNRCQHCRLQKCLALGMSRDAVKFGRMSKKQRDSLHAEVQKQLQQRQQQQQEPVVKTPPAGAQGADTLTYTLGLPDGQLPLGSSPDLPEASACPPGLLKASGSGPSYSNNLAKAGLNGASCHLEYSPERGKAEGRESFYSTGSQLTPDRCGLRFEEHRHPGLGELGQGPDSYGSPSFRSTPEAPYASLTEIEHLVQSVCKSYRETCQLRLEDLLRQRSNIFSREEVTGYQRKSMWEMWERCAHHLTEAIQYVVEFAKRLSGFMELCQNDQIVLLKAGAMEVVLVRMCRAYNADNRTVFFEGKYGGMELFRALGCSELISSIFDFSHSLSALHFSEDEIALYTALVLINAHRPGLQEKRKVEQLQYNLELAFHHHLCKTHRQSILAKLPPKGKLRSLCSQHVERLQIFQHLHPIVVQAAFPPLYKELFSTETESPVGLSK

Compound | IC50 [nM]
CCS(=O)(=O)c1ccc(CC(=O)Nc2ccc(C3CCCCC3)cc2)cc1 [Example 25, N-(4-Cyclohexylphenyl)-2-(4-(ethylsulfonyl)phenyl)acetamide] | 0.01 to 50
CCS(=O)(=O)c1ccc(CC(=O)Nc2ccc(OC3CCCCC3)c(C(F)(F)F)c2)cc1 [Example 23, N-(4-(Cyclohexyloxy)-3-(trifluoromethyl)phenyl)-2-(4-(ethylsulfonyl)phenyl)acetamide] | 50 to 100
CCS(=O)(=O)c1ccc(CC(=O)Nc2ccc(C3=CCC(=O)CC3)c(C(F)(F)F)c2)cc1 [Example 24, 2-(4-(Ethylsulfonyl)phenyl)-N-(4′-oxo-2-(trifluoromethyl)-2′,3′,4′,5′-tetrahydro-[1,1′-biphenyl]-4-yl)acetamide] | 0.01 to 50

Other lines, results leading:

IC50 [nM] | Compound
0.01 to 50 | CCS(=O)(=O)c1ccc(CC(=O)Nc2ccc3c(c2)CCCC3(O)c2ccc(OC)cc2)cc1 (centres unmarked) [Example 43, 2-(4-(Ethylsulfonyl)phenyl)-N-(5-hydroxy-5-(4-methoxyphenyl)-5,6,7,8-tetrahydronaphthalen-2-yl)acetamide]
0.01 to 50 | CCS(=O)(=O)c1ccc(CC(=O)Nc2ccc(C3=CCC(O)CC3)c(C(F)(F)F)c2)cc1 (centres unmarked) [Example 34, 2-(4-(Ethylsulfonyl)phenyl)-N-(4′-hydroxy-2-(trifluoromethyl)-2′,3′,4′,5′-tetrahydro-[1,1′-biphenyl]-4-yl)acetamide]

Source: patent publication US11084784B2, “ROR-gamma modulators and uses thereof” (PIRAMAL ENTERPRISES LIMITED, priority 2014, dated 2021)
